# Structures can show the parent of a compound that is named as a salt.
# Assays:
# Assay type in all cases: in vivo
# [1] = tested on: IPOHE (Ipomoea hederacea Jacq., ivyleaf morningglory); test: Example I postemergence foliar-applied mixtures, direct seeded rice weeds, greenhouse: IPOHE; settings: glyphosate DMA salt (Durango DMA) alone, 105 gae/ha
# Experimental: (§1) Seeds or nutlets of the desired test plant species were planted in a soil matrix prepared by mixing a loam or sandy loam soil (e.g., 28.6 percent silt, 18.8 percent clay, and 52.6 percent sand, with a pH of about 5.8 and an organic matter content of about 1.8 percent) and calcareous grit in an 80 to 20 ratio. The soil matrix was contained in plastic pots with a volume of 1 quart and a surface area of 83.6 square centimeters (cm^2). […] The plants were grown for 8-22 days in a greenhouse with an approximate 14 hr photoperiod which was maintained at about 29° C. during the day and 26° C. during the night. Nutrients (Peters Excel® 15-5-15 5-Ca 2-Mg and iron chelate) were applied in the irrigation solution as needed and water was added on a regular basis. Supplemental lighting was provided with overhead metal halide 1000-Watt lamps as necessary. The plants were employed for testing when they reached the first through fourth true leaf stage.
# (§2) Treatments consisted of the acid or esters of 4-amino-3-chloro-5-fluoro-6-(4-chloro-2-fluoro-3-methoxy-phenyl)pyridine-2-carboxylic acid (Compound A), each formulated as an SC (suspension concentrate), and various herbicidal components alone and in combination. Forms of compound A were applied on an acid equivalent basis.
# (§3) For treatments comprised of formulated compounds, measured amounts of compounds were placed individually in 25 mL glass vials and diluted in a volume of 1.25% (v/v) Agri-Dex® crop oil concentrated to obtain 12× stock solutions. […] Application solutions were prepared by adding an appropriate amount of each stock solution (e.g., 1 mL) and diluted to the appropriate final concentrations with the addition of 10 mL of an aqueous mixture of 1.25% (v/v) crop oil concentrate so that the final spray solutions contained 1.25+/−0.05% (v/v) crop oil concentrate.
# (§4) All stock solutions and applications solutions were visually inspected for compound compatibility prior to application. Spray solutions were applied to the plant material with an overhead Mandel track sprayer equipped with a 8002E nozzles calibrated to deliver 187 L/ha over an application area of 0.503 m^2 at a spray height of 18 to 20 inches (46 to 50 cm) above average plant canopy height. Control plants were sprayed in the same manner with the solvent blank.
# (§5) The treated plants and control plants were placed in a greenhouse as described above and watered by sub-irrigation to prevent wash-off of the test compounds. After approximately 3 weeks, the condition of the test plants as compared with that of the untreated plants was determined visually and scored on a scale of 0 to 100 percent where 0 corresponds to no injury or growth inhibition and 100 corresponds to complete kill.
# (§6) Colby's equation was used to determine the herbicidal effects expected from the mixtures (Colby, S. R. 1967. Calculation of the synergistic and antagonistic response of herbicide combinations. Weeds 15:20-22.).
# [2] = tested on: DIGSA (Digitaria sanguinalis (L.) Scop., large crabgrass); test: Example I postemergence foliar-applied mixtures, direct seeded rice weeds, greenhouse: DIGSA; settings: glyphosate DMA salt (Durango DMA) alone, 210 gae/ha
# Experimental: as §1, §2, §3, §4, §5, §6
# [3] = tested on: SORHA (Sorghum halepense (L.) Pers., johnsongrass); test: Example III postemergence foliar-applied mixtures, row crop weeds (corn, soybean), greenhouse: SORHA; settings: glyphosate DMA salt (Durango DMA) alone
# Experimental: (§7) Seeds or nutlets of the desired test plant species were planted in a soil matrix prepared by mixing a loam or sandy loam soil (e.g., 43 percent silt, 19 percent clay, and 38 percent sand, with a pH of about 8.1 and an organic matter content of about 1.5 percent) and calcareous grit in an 80 to 20 ratio. The soil matrix was contained in plastic pots with a surface area of 84.6 square centimters (cm^2) and a volume of 560 cubic centimeters (cm^3). […] The plants were grown for 7-31 days (d) in a greenhouse with an approximate 15 hour (h) photoperiod which was maintained at about 23-29° C. during the day and 22-28° C. during the night. Nutrients (Peters Excel® 15-5-15 5-Ca 2-Mg) and water were added on a regular basis and supplemental lighting was provided with overhead metal halide 1000-Watt lamps as necessary. The plants were employed for testing when they reached the first, second, or third true leaf stage.
# Treatments consisted of the acid or esters of 4-amino-3-chloro-5-fluoro-6-(4-chloro-2-fluoro-3-methoxy-phenyl)pyridine-2-carboxylic acid (Compound A), each formulated as an
# SC (suspension concentrate), and various herbicidal components alone and in combination. Forms of compound A were applied on an acid equivalent basis.
# (§8) Other herbicidal components were applied on an acid equivalent or active ingredient basis and included the 5-enolpyruvylshikimate-3-phosphate synthase (EPSPS)-inhibiting herbicide, glyphosate dimethylamine salt, formulated as Durango DMA® and the glutamine synthase (GS)-inhibiting herbicide, glufosinate ammonium, formulated as Ignite® 280.
# For treatments comprised of formulated compounds, measured amounts of compounds were placed individually in 25 mL glass vials and diluted in a volume of 1.5% (v/v) Agri-dex® crop oil concentrate to obtain 6× stock solutions. […] Application solutions were prepared by adding an appropriate amount of each stock solution (typically 2 mL) and diluted to the appropriate final concentrations with the addition of an aqueous mixture of 1.5% (v/v) crop oil concentrate and water so that the final spray solutions contained 1.25% (v/v) crop oil concentrate.
# (§9) All stock solutions and applications solutions were visually inspected for compound compatibility prior to application. Compound requirements are based upon a 12 mL application volume at a rate of 187 liters per hectare (L/ha). Formulated compounds were applied to the plant material with an overhead Mandel track sprayer equipped with 8002E nozzles calibrated to deliver 187 L/ha over an application area of 0.503 square meters (m^2) at a spray height of 18 to 20 inches (46 to 50 cm) above the average plant canopy height. Control plants were sprayed in the same manner with the solvent blank.
# as §5, with “2” for “3”
# The following equation was used to calculate the expected activity of mixtures containing two active ingredients, A and B: […]
# [4] = tested on: VIOTR (Viola tricolor L., wild violet); test: Example IV postemergence foliar-applied mixtures, general weed control, greenhouse: VIOTR; settings: glyphosate DMA salt (Durango DMA) alone
# Experimental: as §7, with “Sun Gro Metro-Mix® 360 planting mixture, which typically has” for “a soil matrix prepared by mixing a loam or sandy loam soil (e.g., 43 percent silt, 19 percent clay, and 38 percent sand, with”, “6.0 to 6.8” for “about 8.1”, “30 percent,” for “1.5 percent) and calcareous grit in an 80 to 20 ratio. The soil matrix was contained”, “square” for “square centimters (cm^2) and a volume of 560 cubic”, “(cm^2).” for “(cm^3).”
# as §2, with “the benzyl ester” for “esters”, “SC,” for “SC (suspension concentrate),”
# as §8
# as §3, with “(v/v) Agri-dex” for “(v/v) Agri-Dex®”, “solution (typically” for “solution (e.g.,”, “(v/v) Agri-dex” for “(v/v)”, “contained 1.25%” for “contained 1.25+/−0.05%”
# All stock solutions and applications solutions were visually inspected for compound compatibility prior to application. Compound requirements are based upon a 12 mL application volume at a rate of 187 liters per hectare (L/ha). […]
# as §5, with “kill. […]” for “kill.”
# [5] = tested on: SETFA (Setaria faberi Herrm., giant foxtail); test: Example IV postemergence foliar-applied mixtures, general weed control, greenhouse: SETFA; settings: glyphosate DMA salt (Durango DMA) alone
# Experimental: as §7, with “Sun Gro Metro-Mix® 360 planting mixture, which typically has” for “a soil matrix prepared by mixing a loam or sandy loam soil (e.g., 43 percent silt, 19 percent clay, and 38 percent sand, with”, “6.0 to 6.8” for “about 8.1”, “30 percent,” for “1.5 percent) and calcareous grit in an 80 to 20 ratio. The soil matrix was contained”, “square” for “square centimters (cm^2) and a volume of 560 cubic”, “(cm^2).” for “(cm^3).”
# as §2, with “the benzyl ester” for “esters”, “SC,” for “SC (suspension concentrate),”
# as §8
# as §3, with “(v/v) Agri-dex” for “(v/v) Agri-Dex®”, “solution (typically” for “solution (e.g.,”, “(v/v) Agri-dex” for “(v/v)”, “contained 1.25%” for “contained 1.25+/−0.05%”
# as §9, §5
# (§10) Colby's equation was used to determine the herbicidal effects expected from the mixtures (Colby, S. R. 1967. Calculation of the synergistic and antagonistic response of herbicide combinations. Weeds 15:20-22.) .
# [6] = tested on: CHEAL (Chenopodium album L., common lambsquarters); test: Example IV postemergence foliar-applied mixtures, general weed control, greenhouse: CHEAL; settings: glyphosate DMA salt (Durango DMA) alone
# Experimental: as §7, with “Sun Gro Metro-Mix® 360 planting mixture, which typically has” for “a soil matrix prepared by mixing a loam or sandy loam soil (e.g., 43 percent silt, 19 percent clay, and 38 percent sand, with”, “6.0 to 6.8” for “about 8.1”, “30 percent,” for “1.5 percent) and calcareous grit in an 80 to 20 ratio. The soil matrix was contained”, “square” for “square centimters (cm^2) and a volume of 560 cubic”, “(cm^2).” for “(cm^3).”
# as §2, with “the benzyl ester” for “esters”, “SC,” for “SC (suspension concentrate),”
# as §8
# as §3, with “(v/v) Agri-dex” for “(v/v) Agri-Dex®”, “solution (typically” for “solution (e.g.,”, “(v/v) Agri-dex” for “(v/v)”, “contained 1.25%” for “contained 1.25+/−0.05%”
# as §9, §5, §10
# [7] = tested on: DIGSA (Digitaria sanguinalis (L.) Scop., large crabgrass); test: Example IV postemergence foliar-applied mixtures, general weed control, greenhouse: DIGSA; settings: glyphosate DMA salt (Durango DMA) alone, 210 gae/ha
# Experimental: as §7, with “Sun Gro Metro-Mix® 360 planting mixture, which typically has” for “a soil matrix prepared by mixing a loam or sandy loam soil (e.g., 43 percent silt, 19 percent clay, and 38 percent sand, with”, “6.0 to 6.8” for “about 8.1”, “30 percent,” for “1.5 percent) and calcareous grit in an 80 to 20 ratio. The soil matrix was contained”, “square” for “square centimters (cm^2) and a volume of 560 cubic”, “(cm^2).” for “(cm^3).”
# as §2, with “the benzyl ester” for “esters”, “SC,” for “SC (suspension concentrate),”
# as §8
# as §3, with “(v/v) Agri-dex” for “(v/v) Agri-Dex®”, “solution (typically” for “solution (e.g.,”, “(v/v) Agri-dex” for “(v/v)”, “contained 1.25%” for “contained 1.25+/−0.05%”
# as §9, §5, §10
compound,measurement,setting,value
"O=C(O)CNCP(=O)(O)O [Glyphosate DMA Salt, N-(phosphonomethyl)glycine, reference compound]",Visual Weed Control (%) - 21 DAA IPOHE Obs,[1],30%
same,Visual Weed Control (%) - 21 DAA DIGSA Obs,[2],75%
same,Visual Weed Control (%) - 16 DAA SORHA Obs,[3]; 105 gae/ha,0%
same,Visual Weed Control (%) - 16 DAA SORHA Obs,[3]; 210 gae/ha,10%
same,Visual Weed Control (%) - 16 DAA SORHA Obs,[3]; 420 gae/ha,25%
same,Visual Weed Control (%) - 18 DAA VIOTR Obs,[4]; 210 gae/ha,60%
same,Visual Weed Control (%) - 18 DAA VIOTR Obs,[4]; 420 gae/ha,85%
same,VisualWeed Control (%) - 18 DAA SETFA Obs,[5]; 210 gae/ha,10%
same,VisualWeed Control (%) - 18 DAA SETFA Obs,[5]; 420 gae/ha,90%
same,Visual Weed Control (%) - 18 DAA CHEAL Obs,[6]; 420 gae/ha,0%
same,Visual Weed Control (%) - 18 DAA CHEAL Obs,[6]; 840 gae/ha,30%
same,Visual Weed Control (%) - 18 DAA DIGSA Obs,[7],40%

# Source: patent US20140031227A1, “HERBICIDAL COMPOSITIONS COMPRISING 4-AMINO-3-CHLORO-5-FLUORO-6-(4-CHLORO-2-FLUORO-3-METHOXYPHENYL) PYRIDINE-2-CARBOXYLIC ACID OR A DERIVATIVE THEREOF AND GLYPHOSATE OR GLUFOSINATE” (DOW AGROSCIENCES LLC, priority 2012, published 2014)
